Experimental data reported in paper PMC8262356, “SLC26A6-selective inhibitor identified in a small-molecule screen blocks fluid absorption in small intestine” (JCI Insight, 2021).

Columns and labels:
slc26a3 = target: T1, slc26a3 (Mus musculus, UniProt Q9WVC8); experiment: Selectivity: Cl-/I- exchange in FRT cells coexpressing YFP and slc26a3; type: cell-based; conditions: 25 μM
T1 construct: expressed in transfected cells; host or cells: FRT cells coexpressing YFP
T1 sequence (Q9WVC8 1-757): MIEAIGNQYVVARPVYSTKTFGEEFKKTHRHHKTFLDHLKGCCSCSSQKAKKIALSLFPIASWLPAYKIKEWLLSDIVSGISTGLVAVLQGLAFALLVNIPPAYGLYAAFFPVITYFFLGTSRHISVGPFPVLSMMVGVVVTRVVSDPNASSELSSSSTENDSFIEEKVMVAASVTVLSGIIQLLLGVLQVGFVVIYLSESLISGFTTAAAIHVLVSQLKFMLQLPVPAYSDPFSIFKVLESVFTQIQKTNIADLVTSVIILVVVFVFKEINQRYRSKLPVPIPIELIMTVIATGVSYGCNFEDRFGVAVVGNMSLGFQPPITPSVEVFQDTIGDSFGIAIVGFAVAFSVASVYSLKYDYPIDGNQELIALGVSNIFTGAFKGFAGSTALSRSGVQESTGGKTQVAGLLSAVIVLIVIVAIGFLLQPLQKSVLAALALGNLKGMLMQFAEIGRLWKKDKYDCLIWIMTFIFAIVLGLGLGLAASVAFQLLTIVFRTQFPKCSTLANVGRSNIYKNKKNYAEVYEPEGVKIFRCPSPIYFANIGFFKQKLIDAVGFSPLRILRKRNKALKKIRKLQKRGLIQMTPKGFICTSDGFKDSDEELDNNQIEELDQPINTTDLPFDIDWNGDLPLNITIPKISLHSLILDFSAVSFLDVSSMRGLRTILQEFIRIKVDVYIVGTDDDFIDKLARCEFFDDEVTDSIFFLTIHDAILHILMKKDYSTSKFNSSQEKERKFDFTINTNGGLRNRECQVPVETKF
Experimental: PAT1inh-B01 selectivity was studied by testing its effects on related SLC26A family anion transporters and the Cl^– channel TMEM16A. These measurements used a similar Cl^–/I^– exchange protocol, but FRT cells separately expressed each of the SLC26A family members or TMEM16A. […] PAT1inh-B01 selectivity was also tested by short-circuit current (Isc) in well-differentiated human bronchial epithelial (HBE) cells, which have a complex ion transport mechanism that includes cystic fibrosis transmembrane conductance regulator (CFTR), epithelial Na^+ channel (ENaC), and Ca^+2-activated chloride channels (CaCCs) ([13]). […] Potential PAT1inh-B01 cytotoxicity was studied in FRT cells.
Figure 3 PAT1inh-B01 selectivity and cytotoxicity. […] Cl^–/I^– exchange or I^– influx measured in FRT cells coexpressing YFP and SLC26A isoforms or TMEM16A, with data shown for 25 μM PAT1inh-B01, DMSO vehicle control, and 500 μM niflumic acid (positive control for SLC26A transporters) or 10 μM TMinh-23 (positive control for TMEM16A). […] (C) (left) Short-circuit current (Isc) in well-differentiated HBE cells measured in the absence (top) and presence (bottom) of 25 μM PAT1inh-B01. […]
YFP-based cellular assays of slc26a3, slc26a4, SLC26A9, and TMEM16A function were performed as described previously ([7]). […] The activities of ENaC, CFTR, and CaCC were determined using well-differentiated HBE cells as described previously ([13]). […]

[1] = system: loperamide-induced constipation in mice; experiment: Loperamide model of constipation; type: in vivo, mouse; conditions: 10 mg/kg, oral, stool collected over 3 hours
Experimental: Wild-type CD1 mice were administered loperamide (0.3 mg/kg, intraperitoneally) in PBS containing 5% ethanol (0.1 mg/mL final concentration) to induce constipation ([9], [30]). PAT1inh-B01 and DRAinh-A270, individually or together (10 mg/kg each, in saline containing 5% DMSO and 10% Kolliphor HS 15), or vehicle control were administered by oral gavage 1 hour before loperamide. After loperamide injection mice were placed individually in metabolic cages with free access to food and water. Stool samples were collected for 3 hours, and total stool weight and number of fecal pellets were quantified. To measure stool water content, stool samples were dried at 80°C for 24 hours and water content was calculated as follows: (wet weight – dry weight)/wet weight ([9], [30]).

Cc1c(Br)c(C(F)(F)F)nn1CC(=O)N1CCc2nc3cc(-c4ccccc4)[nH]n3c(=O)c2C1 [PAT1inh-B01]
inhibition of slc26a3 (slc26a3): did not significantly inhibit | effect on stool parameters (weight, number of pellets, water content) [1]: did not affect
